SMILES strings stand for the structures.

The series can be described thus: PARIS III toxicological and environmental analysis of solvents (HTPI, EI). More on the design: species or system human. The conditions noted are these: binary solvent with water. The text has this:
The examined chemical compounds are 2-trifluoromethyl-N′-[5-nitro-2-oxo-1,2-dihydro-3H-indol-3-ylidene]benzohydrazide (1), 3-Amino-N′-[5-nitro-2-oxo-1,2-dihydro-3H-indol-3-ylidene]benzohydrazide (2), and 3-nitro-N′-[5-nitro-2-oxo-1,2-dihydro-3H-indol-3-ylidene]benzohydrazide (3). The evaluation of the descriptors defining molecular properties, absorption, metabolism, and toxicity of considered drugs was estimated with the use of ADMETlab 2.0 [9]. The quantitative structure–activity relationship (QSAR) algorithms implemented in used software based on the chemical structures of considered drugs described by SMILES definitions are presented in Figure 1. The method of interpretation and definitions of particular descriptors obtained during the analysis are included in the Results and Discussion sections. The toxicological analysis of solvents was realized with the use of the Solvent Substitution Software Tool, PARIS III [40, 41]. The characteristics of the Human Toxicity Potential by Ingestion (HTPI) of individual solvents and sets of binary solvents analyzed in this work were obtained based on the values of LD50 for particular solvents.
Additionally, the values of the Environmental Index (EI) were also estimated based on a set of eight environmental impact scores, which included, among others, HTPI, terrestrial toxicity potential, and aquatic toxicity potential. In the case of Equation (2), the σj is the weight for considered impact j, the φi,j stands for the value of normalized impact for considered solvent. (2) EIi=∑j=18σjφi,j¯

Turning to `C[S+](C)[O-]` [DMSO, dimethyl sulfoxide], the “% HTPI x1.0 (relative to the pure organic solvent)” value is, setting by setting: (x* 0.1) 37.7%; (x* 0.2) 55.8%; (x* 0.3) 67.8%; (x* 0.4) 76.4%; (x* 0.5) 83.1%; (x* 0.6) 87.7%. Also, the “% HTPI x1.0 (relative to the pure organic solvent)” value is 91.5% (x* 0.7), 95.4% (x* 0.8), 97.7% (x* 0.9) and 100.0% (x* 1.0).

For the compound `CN1CCCC1=O` [NMP, N-methyl-2-pyrrolidone], the “% HTPI x1.0 (relative to the pure organic solvent)” value reads like this: (x* 0.1) 39.1%; (x* 0.2) 58.8%; (x* 0.3) 70.8%; (x* 0.4) 79.1%; (x* 0.5) 84.9%; (x* 0.6) 89.4%. The “% HTPI x1.0 (relative to the pure organic solvent)” value is, setting by setting: (x* 0.7) 93.0%; (x* 0.8) 95.9%; (x* 0.9) 98.1%; (x* 1.0) 100.0%.

The values above are taken from article PMC10669656, “ADMET and Solubility Analysis of New 5-Nitroisatine-Based Inhibitors of CDK2 Enzymes” (Biomedicines, 2023).
